Data on 4 molecules can be found in patent publication US8546320B2, “Hsp9O-targeted anti-cancer chimeric peptide” (Kyoto University, priority 2008, dated 2013).

The term IC50 denotes the concentration that gives 50% inhibition.

The subject of data set [1] is Caki-1. Format: cell-based, human. The settings on record: 24 h.
Data set [2] has as its system Human pancreatic cancer cells (Bxpc 3). As to the kind of experiment: Anti-tumor effect in cancer-bearing animal models, local administration. It counts as in vivo. To be noted: site of administration and behavior observed. How it is done:
Human pancreatic cancer cells (Bxpc 3) (5.0×10^6) were suspended in 150 μl of phosphate-buffered physiological saline (PBS) and transplanted subcutaneously into nude mice (BALB/c Slc-nu/nu). After 5 days, 150 μl of the Antp-TPR peptide suspended in PBS at a concentration of 1 mg/kg to 5 mg/kg was administered to the solid cancer every two days for a total of nine times, and the tumor contraction effect was examined. The tumor diameter was measured with calipers and the tumor volume (mm^3) was calculated according to the formula: length (mm)×minor diameter (mm)^2×0.5.

A further data set has as its system cancer cells. Description: Cell viability assay, summary statements on cancer cells. Format: cell-based. To be noted: 24 h.
The subject of the next data set is LNCap. Format: cell-based, human. The settings on record: 24 h.
The test system of a further data set is BT-20. It counts as cell-based, human. The settings on record: 24 h. As to the method: (§1) A total of 3×10^3 cells were inoculated per well on a 96 well plate and cultured in a medium containing 10% FBS for 24 hours, and incubated with 100 μl of a peptide having a gradual increase in concentration at 37° C. for 48 to 72 hours. The survival rate of the cells was measured by using WST-8 solution (Cell Count Reagent SF; Nacalai Tesque, Inc.).
(§2) A total of 3×10^3 cells per well were inoculated onto a 96 well plate, and incubated in a medium containing 10% FBS with 100 μl of a peptide diluted stepwise at 37° C. for 48 to 72 hours. The survival rate of the cells was measured by using WST-8 solution (Cell Count Reagent SF; Nacalai Tesque, Inc.).

A further data set has as its system MDA-MB-231. Format: cell-based. To be noted: 24 h.
The subject of another data set is OE19. It counts as cell-based. To be noted: 24 h. How it is done: as §1, §2
The next data set concerns BXPC-3. Format: cell-based, human. To be noted: 24 h.
For a further data set, the system named is leukemia cell strains. Format: cell-based, human. As to the method:
as §2

In the next data set the test system is THP-1. As to the kind of experiment: cells. It counts as cell-based, human. As to the method:
as §2

The test system of another data set is HL-60. Description: cells. It counts as cell-based, human. As to the method: as §2
The next data set relates to U937. Description: cells. Format: cell-based, human. As to the method: as §2
In a further data set the test system is K562. Description: cells. It counts as cell-based, human. As to the method:
as §2

Another data set relates to A549. Format: cell-based. The settings on record: 24 h.
Data set [3] has as its system human lung normal epithelial cell strain (WI38). As to the kind of experiment: Cell viability assay (WST-8), WI38. Format: cell-based. The settings on record: Normal cells W138, averages of two independent experiments, read-out: Anti-tumor activity, IC50. As to the method:
as §2
A general note: Tetrazolium dyes change colour on reduction, which living cells bring about.

For data set [4], the system named is human normal pancreas epithelial cell strain (PE). Description: Cell viability assay (WST-8), PE. Format: cell-based. The settings on record: Normal cells PE, averages of two independent experiments, read-out: Anti-tumor activity, IC50. As to the method: as §2
A further data set concerns HEK293. As to the kind of experiment: cells. Format: cell-based, human. To be noted: Homo sapiens, HEK293; Normal cells HEK; averages of two independent experiments; read-out: Anti-tumor activity, IC50. How it is done:
as §1, §2

The target of data set [5] is T1, interaction between Hsp90 and the Hop's TPR2A domain (Homo sapiens, UniProt P07900).
T1 construct: histidine tag; made in house; host or cells: Hsp90: E. coli BL21 (pDEST17-Hsp90)
Description: BIACORE competition: Hsp90 pre-mixed with peptide, added to immobilized TPR2A. Format: binding. To be noted: increasing peptide concentration. From the text: It was examined whether the TPR peptide designed could compete specifically with the interaction between Hsp90, which is essential for the accurate folding of some carcinogenic protein including survivin in cancer cells, and the Hop's TPR2A domain.
(Surface plasmon resonance follows binding to a sensor surface in real time, without labels.)

Data set [6] relates to Caki-1. Format: cell-based, human. The settings on record: Caki-1, 68 μM. As to the method: The TPR peptide or the TPR scramble peptide was mixed with a commercially available transfection reagent (Profect-P2 or, Lipofectamine LTX) and the mixture was left to incubate at room temperature for 20 minutes, to form liposome before the complex was added to cancer cells (Caki-1 (kidney cancer cells)); the survival rate of the cells was then measured by using WST-8 solution (Cell Count Reagent SF; Nacalai Tesque, Inc.) and the results were compared with those such as in the case of the TPR scramble peptide or the liposome alone.

Where [7] appears, read: Human AML cells THP-1, averages of two independent experiments, read-out: Anti-tumor activity, IC50.
The mark [8] stands for this setting: Human AML cells HL-60, averages of two independent experiments, read-out: Anti-tumor activity, IC50.
Where [9] appears, read: U-937, Human AML cells U937, averages of two independent experiments, read-out: Anti-tumor activity, IC50.
The mark [10] stands for this setting: Human AML cells K562, averages of two independent experiments, read-out: Anti-tumor activity, IC50.

Where two headings read alike, the source gives them in different places. Where a SMILES comes first, the peptide text is derived from it.

As to `CC[C@H](C)[C@H](NC(=O)[C@H](CCCNC(=N)N)NC(=O)[C@H](C)NC(=O)[C@H](Cc1ccc(O)cc1)NC(=O)[C@H](C)NC(=O)[C@H](CCCCN)NC(=O)[C@H](CCCCN)NC(=O)[C@H](CCCCN)NC(=O)[C@H](Cc1c[nH]c2ccccc12)NC(=O)[C@H](CCCCN)NC(=O)[C@H](CCSC)NC(=O)[C@H](CCCNC(=N)N)NC(=O)[C@H](CCCNC(=N)N)NC(=O)[C@H](CC(N)=O)NC(=O)[C@H](CCC(N)=O)NC(=O)[C@H](Cc1ccccc1)NC(=O)[C@H](Cc1c[nH]c2ccccc12)NC(=O)[C@@H](NC(=O)[C@H](CCCCN)NC(=O)[C@@H](NC(=O)[C@H](CCC(N)=O)NC(=O)[C@@H](N)CCCNC(=N)N)[C@@H](C)CC)[C@@H](C)CC)C(=O)NCC(=O)N[C@@H](CC(N)=O)C(=O)N[C@@H](CO)C(=O)N[C@@H](Cc1ccc(O)cc1)C(=O)N[C@@H](Cc1ccccc1)C(=O)N[C@@H](CCCCN)C(=O)O` [Antp-TPR] (H-RQIKIWFQNRRMKWKKKAYARIGNSYFK-OH; N-terminus and C-terminus assumed), the IC50 is 43.3 ± 3 µM in the data set on Caki-1 [1]; 20 to 60 µM in the data set with cancer cells; 49.1 ± 3 µM with LNCap; 32.8 ± 5.5 µM in the data set on BT-20; 56.9 ± 12.3 µM in the data set with MDA-MB-231; 29.9 ± 3.4 µM with OE19. Also, the half-maximal inhibitory concentration (IC50) with BXPC-3 was 39.8 ± 2.2 µM; with leukemia cell strains it was 20 to 60 µM; in the data set on THP-1 it was 24700 nM; in the data set with HL-60 it was 46400 nM; in the data set on U937, 25200 nM; with K562, 54200 nM. For the same molecule, the 50% inhibitory concentration (IC50) in the data set with A549 amounted to 52.9 ± 2.5 µM. Besides, the “toxicity to the mice” value in [2] is recorded as “little toxicity to the mice”. For the same molecule, the “Cell Survival Rate (%)” value in the data set on U937 is reported as 23.24%.
As for `COC1=C2C[C@@H](C)C[C@H](OC)[C@H](O)[C@@H](C)/C=C(\C)[C@H](OC(N)=O)[C@@H](OC)/C=C\C=C(/C)C(=O)NC(=CC1=O)C2=O` [Geldanamycin, geldanamycin], the IC50 in [3] was determined as 1000 nM; with THP-1 (setting [7]) it was 700 nM; in the data set with HL-60 (setting [8]) it was 700 nM; in the data set with U937 (setting [9]), 650 nM; in the data set on K562 (setting [10]), 750 nM; in data set [4], 700 nM. The IC50 in the data set with HEK293 was 700 nM. Moreover, the “Cell Survival Rate (%)” value in the data set with THP-1 (THP-1, 1.25 μM) came to 6.20%; in the data set on THP-1 (THP-1, 2.5 μM), 5.01%; with THP-1 (THP-1, 5 μM), 4.49%; in the data set on THP-1 (THP-1, 10 μM), 7.12%; with HL-60 (HL-60, 1.25 μM), 6.65%; in the data set with HL-60 (HL-60, 2.5 μM) it was 6.02%. Further, the “Cell Survival Rate (%)” value with HL-60 (HL-60, 5 μM) amounted to 5.03%; in the data set with HL-60 (HL-60, 10 μM), 5.23%; in the data set with U937 (U937, 1.25 μM), 5.40%; in the data set with U937 (U937, 2.5 μM), 6.26%; with U937 (U937, 5 μM), 4.65%; in the data set with U937 (U937, 10 μM) it was 5.78%. Moreover, the “Cell Survival Rate (%)” value was determined as 20.08% with K562 (K562, 1.25 μM); 9.75% in the data set with K562 (K562, 2.5 μM); 7.07% in the data set on K562 (K562, 5 μM); 6.60% in the data set on K562 (K562, 10 μM).
Regarding `C=CCNC1=C2C[C@@H](C)C[C@H](OC)[C@H](O)[C@@H](C)/C=C(\C)[C@H](OC(N)=O)[C@@H](OC)/C=C\C=C(/C)C(=O)NC(=CC1=O)C2=O` [Peptide 17-AAG, 17-allylaminogeldanamycin], the IC50 in data set [3] was found to be 700 nM; in the data set on THP-1 (setting [7]), 750 nM; in the data set on HL-60 (setting [8]) it was 1050 nM; in the data set with U937 (setting [9]) it was 700 nM; in the data set with K562 (setting [10]) it was 700 nM; in data set [4], 800 nM. The half-maximal inhibitory concentration (IC50) in the data set on HEK293 is 700 nM. Moreover, the “Cell Survival Rate (%)” value in the data set with THP-1 (THP-1, 1.25 μM) was 6.80%; in the data set on THP-1 (THP-1, 2.5 μM), 5.49%; in the data set with THP-1 (THP-1, 5 μM), 6.56%; in the data set with THP-1 (THP-1, 10 μM), 7.76%; in the data set with HL-60 (HL-60, 1.25 μM), 37.03%; in the data set with HL-60 (HL-60, 2.5 μM) it was 19.70%. The “Cell Survival Rate (%)” value stood at 8.37% with HL-60 (HL-60, 5 μM); 3.87% in the data set on HL-60 (HL-60, 10 μM); 5.21% with U937 (U937, 1.25 μM); 4.03% in the data set on U937 (U937, 2.5 μM); 4.97% in the data set on U937 (U937, 5 μM); 4.16% in the data set on U937 (U937, 10 μM). Moreover, the “Cell Survival Rate (%)” value in the data set with K562 (K562, 1.25 μM) is recorded as 5.67%; in the data set with K562 (K562, 2.5 μM), 5.08%; in the data set with K562 (K562, 5 μM), 5.67%; in the data set on K562 (K562, 10 μM) it was 6.35%.
With `CC[C@H](C)[C@H](NC(=O)[C@H](C)NC(=O)[C@H](C)NC(=O)[C@H](CO)NC(=O)[C@H](Cc1ccccc1)NC(=O)[C@H](CCCCN)NC(=O)[C@@H](N)CCCNC(=N)N)C(=O)NCC(=O)N[C@@H](Cc1ccc(O)cc1)C(=O)N[C@@H](CC(N)=O)C(=O)N[C@@H](CCCCN)C(=O)N[C@@H](Cc1ccc(O)cc1)C(=O)O` [TPR scramble, reference compound] (H-RKFSAAIGYNKY-OH; N-terminus and C-terminus assumed), the “inhibition of the interaction between Hsp90 and TPR2A” value in [5] was “does not inhibit the interaction completely”. Further, the “killing effect after introduction with transfection reagent” value with Caki-1 [6] was “not observed”.
